Results on two molecules are retold here after ChEMBL document CHEMBL4376854, “Investigation of the Adrenergic and Opioid Binding Affinities, Metabolic Stability, Plasma Protein Binding Properties, and Functional Effects of Selected Indole-Based Kratom Alkaloids” (J Med Chem, 2020).

For data set [1] the following is noted: human, plasma, 1 µM.
For data set [2], the target named is T1, Delta-type opioid receptor (Homo sapiens, UniProt P41143). In words: Displacement of [3H]DADLE from human recombinant delta opioid receptor expressed in rat Chem-1 (RBL) cell membranes at 100 nM incubated for 60 mins relative to control. (In general: Loss of bound radioactivity is the signal in a displacement assay; it reports binding, not function.)
T1 sequence (P41143 whole entry): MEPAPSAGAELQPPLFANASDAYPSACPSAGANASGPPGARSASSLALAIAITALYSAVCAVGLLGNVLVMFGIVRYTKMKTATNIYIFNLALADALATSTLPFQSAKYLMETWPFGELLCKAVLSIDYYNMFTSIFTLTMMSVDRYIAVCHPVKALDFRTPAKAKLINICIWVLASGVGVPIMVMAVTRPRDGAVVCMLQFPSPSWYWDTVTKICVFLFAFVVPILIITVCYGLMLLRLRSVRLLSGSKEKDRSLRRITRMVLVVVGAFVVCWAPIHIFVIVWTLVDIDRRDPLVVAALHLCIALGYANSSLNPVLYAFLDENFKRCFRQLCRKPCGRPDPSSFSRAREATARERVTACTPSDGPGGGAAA
Data set [3] concerns the target Nociceptin receptor (Homo sapiens) (UniProt P41146). As to conditions: 10000 nM.
The target of data set [4] is T1, Delta-type opioid receptor. In words: Displacement of [3H]DADLE from human recombinant delta opioid receptor expressed in rat Chem-1 (RBL) cell membranes at 10000 nM incubated for 60 mins relative to control.
Data set [5] has as its target T2, Alpha-1B adrenergic receptor (Homo sapiens) (UniProt P35368).
T2 sequence (whole entry): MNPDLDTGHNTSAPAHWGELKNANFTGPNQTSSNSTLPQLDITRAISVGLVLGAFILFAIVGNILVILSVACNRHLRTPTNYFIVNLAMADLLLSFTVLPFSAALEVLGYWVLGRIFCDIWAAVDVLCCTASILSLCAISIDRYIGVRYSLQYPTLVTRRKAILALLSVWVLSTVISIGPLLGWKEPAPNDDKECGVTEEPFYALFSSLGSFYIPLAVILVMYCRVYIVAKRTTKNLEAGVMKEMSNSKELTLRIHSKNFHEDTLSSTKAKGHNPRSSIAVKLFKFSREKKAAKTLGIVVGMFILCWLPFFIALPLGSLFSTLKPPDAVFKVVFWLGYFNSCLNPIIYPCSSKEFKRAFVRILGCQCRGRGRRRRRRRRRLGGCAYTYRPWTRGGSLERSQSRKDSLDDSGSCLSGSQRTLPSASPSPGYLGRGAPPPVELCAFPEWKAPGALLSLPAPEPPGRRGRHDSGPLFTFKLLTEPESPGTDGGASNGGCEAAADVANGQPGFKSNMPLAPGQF
As to conditions: CHO, 10000 nM.

The target of the next data set is Mu-type opioid receptor (Homo sapiens, UniProt P35372). As to conditions: HEK293, 10000 nM.
Mu-type opioid receptor, sequence (P35372 whole entry): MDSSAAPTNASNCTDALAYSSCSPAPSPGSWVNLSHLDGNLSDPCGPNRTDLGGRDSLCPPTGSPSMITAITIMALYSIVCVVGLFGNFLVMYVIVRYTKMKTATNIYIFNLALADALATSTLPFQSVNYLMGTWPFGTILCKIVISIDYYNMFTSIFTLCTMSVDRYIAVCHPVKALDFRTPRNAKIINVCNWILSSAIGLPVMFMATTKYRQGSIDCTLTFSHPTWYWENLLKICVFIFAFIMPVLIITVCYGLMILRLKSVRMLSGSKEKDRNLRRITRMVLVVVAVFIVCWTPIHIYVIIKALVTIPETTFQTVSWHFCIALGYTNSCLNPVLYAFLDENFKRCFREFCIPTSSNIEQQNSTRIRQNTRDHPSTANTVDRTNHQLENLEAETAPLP
A short description of data set [6]: Toxicity in Sprague-Dawley rat assessed as induction of hypothermia at 0.0032 to 10 mg/kg, iv. As to conditions: in vivo. Format: organism-based.
Data set [7] addresses T3, Kappa-type opioid receptor (Homo sapiens, UniProt P41145). As to conditions: 100 nM.
Data set [8] concerns the target T4, Alpha-1D adrenergic receptor (Homo sapiens) (UniProt P25100).
T4 sequence (whole entry): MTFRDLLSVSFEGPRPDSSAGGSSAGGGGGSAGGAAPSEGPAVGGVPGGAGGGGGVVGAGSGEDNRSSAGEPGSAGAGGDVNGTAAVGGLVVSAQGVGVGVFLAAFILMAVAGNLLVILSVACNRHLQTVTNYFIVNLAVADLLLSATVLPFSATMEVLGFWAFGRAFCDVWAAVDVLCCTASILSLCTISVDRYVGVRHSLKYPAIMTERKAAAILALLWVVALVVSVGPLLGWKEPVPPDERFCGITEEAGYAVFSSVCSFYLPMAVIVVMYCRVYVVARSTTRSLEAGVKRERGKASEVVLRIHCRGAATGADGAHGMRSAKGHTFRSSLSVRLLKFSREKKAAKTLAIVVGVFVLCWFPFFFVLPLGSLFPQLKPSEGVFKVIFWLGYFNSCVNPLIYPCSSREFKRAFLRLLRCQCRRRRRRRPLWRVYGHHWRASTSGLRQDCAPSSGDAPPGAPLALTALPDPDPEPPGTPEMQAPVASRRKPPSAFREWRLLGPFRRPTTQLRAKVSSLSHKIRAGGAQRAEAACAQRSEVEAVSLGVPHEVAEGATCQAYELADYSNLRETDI
The note with it: CHO, 100 nM.

For data set [9], the target named is T5, Alpha-2B adrenergic receptor (Homo sapiens) (UniProt P18089).
T5 sequence (whole entry): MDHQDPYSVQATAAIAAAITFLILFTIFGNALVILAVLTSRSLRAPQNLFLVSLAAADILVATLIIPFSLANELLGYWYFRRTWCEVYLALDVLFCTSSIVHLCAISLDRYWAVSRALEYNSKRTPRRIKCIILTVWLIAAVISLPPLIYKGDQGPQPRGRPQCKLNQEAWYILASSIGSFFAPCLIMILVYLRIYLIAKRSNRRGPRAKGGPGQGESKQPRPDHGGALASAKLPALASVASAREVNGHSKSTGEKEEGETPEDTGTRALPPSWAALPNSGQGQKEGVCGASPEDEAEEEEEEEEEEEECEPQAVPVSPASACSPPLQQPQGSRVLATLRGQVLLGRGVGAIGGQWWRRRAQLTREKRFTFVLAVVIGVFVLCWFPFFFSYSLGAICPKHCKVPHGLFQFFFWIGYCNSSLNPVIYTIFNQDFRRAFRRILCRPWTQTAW
The note with it: CHO, 10000 nM.

The conditions of data set [10]: human, microsomes, 1 µM.
Data set [11] concerns the target T6, Alpha-1A adrenergic receptor (Homo sapiens) (UniProt P35348).
T6 sequence (whole entry): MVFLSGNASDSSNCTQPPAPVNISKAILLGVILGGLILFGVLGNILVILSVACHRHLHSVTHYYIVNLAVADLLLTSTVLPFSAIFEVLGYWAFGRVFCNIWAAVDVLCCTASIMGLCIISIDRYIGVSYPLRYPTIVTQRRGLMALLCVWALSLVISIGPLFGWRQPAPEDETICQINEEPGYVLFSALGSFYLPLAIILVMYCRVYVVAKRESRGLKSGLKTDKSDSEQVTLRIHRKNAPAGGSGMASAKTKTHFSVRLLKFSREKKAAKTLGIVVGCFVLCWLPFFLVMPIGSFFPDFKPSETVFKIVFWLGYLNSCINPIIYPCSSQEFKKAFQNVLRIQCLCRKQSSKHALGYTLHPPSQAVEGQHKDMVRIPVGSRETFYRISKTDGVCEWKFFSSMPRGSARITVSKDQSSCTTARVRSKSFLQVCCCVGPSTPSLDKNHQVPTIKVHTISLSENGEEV
As to conditions: CHO, 100 nM.

The target in data set [12] is T6, Alpha-1A adrenergic receptor (Homo sapiens). The note with it: CHO, 10000 nM.
For data set [13] the following is noted: human, microsomes, 1 h.
Data set [14] deals with T3, Kappa-type opioid receptor. The data set is described as follows: Displacement of [3H]U69,593 from human recombinant kappa opioid receptor expressed in rat RBL cell membranes incubated for 60 mins.

T3 sequence (P41145 whole entry): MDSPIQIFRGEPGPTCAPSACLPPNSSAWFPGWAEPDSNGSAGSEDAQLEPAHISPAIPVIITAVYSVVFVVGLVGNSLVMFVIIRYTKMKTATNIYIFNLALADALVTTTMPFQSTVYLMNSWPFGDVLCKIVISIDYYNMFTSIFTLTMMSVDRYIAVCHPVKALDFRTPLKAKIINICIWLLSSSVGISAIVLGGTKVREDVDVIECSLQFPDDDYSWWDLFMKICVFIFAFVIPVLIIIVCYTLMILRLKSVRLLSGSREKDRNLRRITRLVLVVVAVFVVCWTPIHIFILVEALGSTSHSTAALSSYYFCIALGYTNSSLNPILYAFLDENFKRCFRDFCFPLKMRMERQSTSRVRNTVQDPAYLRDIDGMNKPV
Nociceptin receptor (Homo sapiens), sequence (P41146 whole entry): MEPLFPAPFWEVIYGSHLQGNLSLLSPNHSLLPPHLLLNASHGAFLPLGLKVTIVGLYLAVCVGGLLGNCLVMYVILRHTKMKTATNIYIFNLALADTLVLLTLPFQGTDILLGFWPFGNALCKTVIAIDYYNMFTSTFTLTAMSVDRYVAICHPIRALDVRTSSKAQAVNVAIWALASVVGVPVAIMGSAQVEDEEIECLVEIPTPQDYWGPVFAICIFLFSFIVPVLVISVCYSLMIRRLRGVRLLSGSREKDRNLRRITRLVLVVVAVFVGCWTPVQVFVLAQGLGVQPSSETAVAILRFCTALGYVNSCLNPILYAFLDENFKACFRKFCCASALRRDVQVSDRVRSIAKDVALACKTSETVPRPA

For the molecule `CC[C@@H]1CN2CCc3c([nH]c4cccc(OC)c34)[C@H]2C[C@@H]1/C(=C\OC)C(=O)OC`, the Fu is recorded as 0.01 in [1] and 0.276 in [10]. Moreover, the inhibition in data set [2] is 0.6%; in data set [3] it was 31.8%; in [4], 69.2%; in [5], 95.6%; against Mu-type opioid receptor, 98%; in data set [7], 61.9%. Further, the inhibition was 6.3% in [8], 67.2% in data set [9], 16.8% in data set [11] and 81.1% in data set [12]. In addition, the Activity result in [6] is on record as “Toxic”. The molecule also gave a Kel in [13] of 0.0166 min⁻¹. In addition, the Ki in data set [14] was found to be 116 nM.

`CC[C@@H]1CN2CCc3c([nH]c4cccc(OC)c34)[C@@H]2C[C@@H]1/C(=C\OC)C(=O)OC`: the Fu came to 0.02 in data set [1] and 0.307 in data set [10]. Moreover, the inhibition is 0.4% in data set [2]; 40.8% in data set [3]; 18.3% in data set [4]; 40.3% in data set [5]; 93.7% at Mu-type opioid receptor; 25.2% in data set [7]. The inhibition in data set [8] was -2.1%; in data set [9], 25.1%; in data set [11], 13.2%; in [12], 83.5%. For the same molecule, the Activity result in data set [6] is “Non-Toxic”. This molecule also had a Kel in data set [13] of 0.0347 min⁻¹. In addition, the inhibitory constant (Ki) in [14] was found to be 198 nM.

Broadly, the inhibition is the relative decrease from the control value, in per cent. As a reminder, the Ki is a measure of affinity in units of concentration, obtained from inhibition or displacement.
